Data: the NIST ThermoML archive (doi:10.1021/acs.jced.6b00695)
± gives the expanded uncertainty stated by the source.

Assay: mn = molality of the nth substance listed, in mol/kg
Conditions: for surface tension liquid-gas: Capillary rise; for viscosity / speed of sound / mass density: 100 kPa, Liquid; for viscosity: Capillary tube (Ostwald / Ubbelohde) method; for speed of sound: Sing-around technique in a fixed-path interferometer; for mass density: Vibrating tube method

OC[C@H]1O[C@@](CO)(O[C@H]2O[C@H](CO)[C@@H](O)[C@H](O)[C@H]2O)[C@@H](O)[C@@H]1O [D-sucrose] + O
surface tension liquid-gas (298.15 K, m1 = 1.27): 42.79 ± 0.7 mN/m
viscosity (298.15 K, m1 = 1.27): 2.727 ± 0.018 mPa·s
speed of sound (298.15 K, m1 = 1.27): 1607.8 ± 1.1 m/s
mass density (298.15 K, m1 = 1.27): 1127.29 ± 0.25 kg/m3
surface tension liquid-gas (303.15 K, m1 = 1.27): 42.13 ± 0.7 mN/m
viscosity (303.15 K, m1 = 1.27): 2.386 ± 0.016 mPa·s
speed of sound (303.15 K, m1 = 1.27): 1615.4 ± 1.1 m/s
mass density (303.15 K, m1 = 1.27): 1125.29 ± 0.25 kg/m3
surface tension liquid-gas (308.15 K, m1 = 1.27): 40.87 ± 0.7 mN/m
viscosity (308.15 K, m1 = 1.27): 2.085 ± 0.014 mPa·s
speed of sound (308.15 K, m1 = 1.27): 1621.8 ± 1.1 m/s
mass density (308.15 K, m1 = 1.27): 1123.11 ± 0.25 kg/m3

O=C(O)CC(O)(CC(=O)O)C(=O)O [citric acid] + O
surface tension liquid-gas (298.15 K, m1 = 0.005): 71.6 ± 0.69 mN/m
viscosity (298.15 K, m1 = 0.005): 0.9011 ± 0.0069 mPa·s
speed of sound (298.15 K, m1 = 0.005): 1494.6 ± 0.86 m/s
mass density (298.15 K, m1 = 0.005): 997.455 ± 0.05 kg/m3
surface tension liquid-gas (303.15 K, m1 = 0.005): 70.84 ± 0.69 mN/m
viscosity (303.15 K, m1 = 0.005): 0.8009 ± 0.0066 mPa·s
speed of sound (303.15 K, m1 = 0.005): 1504.7 ± 0.86 m/s
mass density (303.15 K, m1 = 0.005): 996.059 ± 0.045 kg/m3
surface tension liquid-gas (308.15 K, m1 = 0.005): 70.06 ± 0.69 mN/m
viscosity (308.15 K, m1 = 0.005): 0.7225 ± 0.0063 mPa·s
speed of sound (308.15 K, m1 = 0.005): 1516.2 ± 0.87 m/s
mass density (308.15 K, m1 = 0.005): 994.427 ± 0.051 kg/m3

[Cl][Yb]([Cl])[Cl] [ytterbium trichloride] + O
mass density (298.15 K, m1 = 0.005): 998.121 ± 0.05 kg/m3

[Cl][Dy]([Cl])[Cl] [dysprosium(III) chloride] + O
mass density (298.15 K, m1 = 0.005): 998.006 ± 0.05 kg/m3

[Cl][Er]([Cl])[Cl] [erbium trichloride] + O
mass density (298.15 K, m1 = 0.005): 998.051 ± 0.05 kg/m3
